Reference: BigSolDB 2.1

C1N2CN3CN1CN(C2)C3
Details	solubility (mole fraction)
in acetic acid, 304.52 K	0.245
in acetic acid, 310.83 K	0.245
in acetic acid, 317.35 K	0.246
in acetic acid, 321.91 K	0.249
in acetic acid, 327.65 K	0.25
in acetic acid, 332.65 K	0.251
in acetic acid, 337.15 K	0.256
in ethanol, 288.19 K	0.0085
in ethanol, 293.49 K	0.0096
in ethanol, 298.43 K	0.0107
in ethanol, 303.4 K	0.012
in ethanol, 312.91 K	0.0148
in methanol, 299.91 K	0.0234
in methanol, 304.45 K	0.0251
in methanol, 307.85 K	0.0264
in methanol, 311.9 K	0.028
in methanol, 315.95 K	0.0293
in methanol, 319.63 K	0.0304
in methanol, 323.65 K	0.032
in methanol, 326.25 K	0.0335
in methanol, 330.85 K	0.0353
in water, 303.21 K	0.098
in water, 307.4 K	0.0959
in water, 312.18 K	0.0948
in water, 317.05 K	0.0931
in water, 321.86 K	0.0914
in water, 326.15 K	0.0894
in water, 330.45 K	0.0891
in water, 335.42 K	0.0895
in water, 340.35 K	0.0914
